These results are taken from ChEMBL document CHEMBL1132499, “NMR-based discovery of phosphotyrosine mimetics that bind to the Lck SH2 domain” (Bioorg Med Chem Lett, 1999).

The term Kd denotes the free concentration of one partner at which half of the binding sites on the other are occupied at equilibrium, for simple one-to-one binding. Lower therefore signals tighter binding.

Structures are written as SMILES.

The target in the assay is Tyrosine-protein kinase Lck (Homo sapiens, UniProt P06239). Description: Binding affinity against Lck SH2 domain.
Tyrosine-protein kinase Lck, sequence (P06239 whole entry, the tested form may be a part): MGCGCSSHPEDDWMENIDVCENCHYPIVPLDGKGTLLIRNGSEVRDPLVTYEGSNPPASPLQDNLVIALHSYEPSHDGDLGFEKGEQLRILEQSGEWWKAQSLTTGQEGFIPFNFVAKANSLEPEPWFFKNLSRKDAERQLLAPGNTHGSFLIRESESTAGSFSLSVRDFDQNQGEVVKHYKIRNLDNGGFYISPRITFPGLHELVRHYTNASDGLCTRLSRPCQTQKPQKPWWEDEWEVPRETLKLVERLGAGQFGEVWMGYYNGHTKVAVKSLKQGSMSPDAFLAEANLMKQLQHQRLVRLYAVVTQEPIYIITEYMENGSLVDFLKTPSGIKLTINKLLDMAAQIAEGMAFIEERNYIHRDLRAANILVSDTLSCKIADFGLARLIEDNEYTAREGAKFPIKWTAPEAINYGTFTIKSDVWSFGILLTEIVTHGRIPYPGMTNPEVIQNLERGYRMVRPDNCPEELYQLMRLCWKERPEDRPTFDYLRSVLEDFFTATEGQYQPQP
With `O=C(O)c1ccccc1C(=O)n1ccnc1`, the Kd was determined as 1300 µM.
Regarding `Cc1nccn1C(=O)c1ccccc1C(=O)O`, the Kd was found to be 1600 µM.
The molecule `O=C(O)Cc1ccccc1` [PHENYLACETIC ACID] came in with a Kd greater than 50000 µM.
As to `O=P(O)(O)Cc1cccc2ccccc12`, binding was put at a Kd of 1000 µM.
`O=P(O)(O)Oc1ccccc1` [PHENYL DIHYDROGEN PHOSPHATE] returned a Kd of 300 µM.
With `O=P(O)(O)Cc1ccccc1` [BENZYLPHOSPHONIC ACID] the figure was 5900 µM.
Molecule `Cc1cc(C)nc(NC(=O)c2cc(C(=O)O)c(C(=O)Nc3cc(C)cc(C)n3)cc2C(=O)O)c1` came in with a Kd of 60 µM.
The molecule `CCCN(CCC)C(=O)c1ccccc1C(=O)O` registered a Kd of 1700 µM.
With `Cc1ccccc1CP(=O)(O)O` the figure was 1000 µM; with `O=C(O)c1cc(C(=O)O)cc(C(=O)O)c1`, 200 µM; with `O=C(O)c1ccccc1C(=O)O` [PHTHALIC ACID], 1700 µM.
The value for `NC(Cc1ccc(OP(=O)(O)O)cc1)C(=O)O` (stereo not given) was 400 µM; that for `O=P(O)(O)Oc1cccc2ccccc12` was 200 µM; that for `CCOC(=O)C(Cc1ccc(OP(=O)(O)O)cc1)NC(C)=O` (stereo not given) was 300 µM.
With `O=P(O)(O)c1cccc2ccccc12` the figure was 1500 µM.
